Assay results reported in patent US7442699B2, “Anilinopyrimidine derivatives as IKK inhibitors and compositions and methods related thereto” (Signal Pharmaceuticals, LLC, priority 2000, dated 2008).
Counter-ions that a name gives are not always drawn. Like-named read-outs stand apart in the source and are kept apart here.

Biological target: T1, IKK-2 (Homo sapiens, UniProt O14920, S177E/S181E)
T1 construct: His6
T1 sequence (O14920 1-756 S177E/S181E): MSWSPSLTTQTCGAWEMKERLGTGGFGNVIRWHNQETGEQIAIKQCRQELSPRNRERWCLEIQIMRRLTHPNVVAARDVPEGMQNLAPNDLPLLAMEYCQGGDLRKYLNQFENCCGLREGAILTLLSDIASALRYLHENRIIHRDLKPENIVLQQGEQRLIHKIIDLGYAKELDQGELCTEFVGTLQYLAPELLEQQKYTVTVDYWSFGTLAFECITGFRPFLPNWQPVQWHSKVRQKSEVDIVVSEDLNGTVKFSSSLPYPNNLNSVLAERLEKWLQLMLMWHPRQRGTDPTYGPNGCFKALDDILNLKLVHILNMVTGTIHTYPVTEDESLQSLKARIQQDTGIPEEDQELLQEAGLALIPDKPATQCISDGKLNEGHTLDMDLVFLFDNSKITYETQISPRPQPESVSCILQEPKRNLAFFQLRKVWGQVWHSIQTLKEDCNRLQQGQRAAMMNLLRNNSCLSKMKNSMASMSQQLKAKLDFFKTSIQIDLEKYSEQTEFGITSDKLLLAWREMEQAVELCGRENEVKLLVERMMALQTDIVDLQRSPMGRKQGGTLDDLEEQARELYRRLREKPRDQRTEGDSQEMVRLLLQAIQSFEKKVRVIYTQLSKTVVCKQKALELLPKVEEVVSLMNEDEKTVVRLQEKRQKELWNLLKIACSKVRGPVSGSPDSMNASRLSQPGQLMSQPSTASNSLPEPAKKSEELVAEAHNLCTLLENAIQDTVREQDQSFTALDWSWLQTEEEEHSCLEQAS
Test: IKK-2 Enzyme Assay
Format: biochemical
Conditions: read-out: IC50 value in the IKK-2 Enzyme Assay
Method: The mixture is preincubated for 15 minutes at room temperature. […] After 30 minutes the precipitate is harvested onto a filter plate to which 50 μl of scintillation fluid is added and then quantified by a scintillation counter.

[1] = more preferred compounds, 500 nM or less
[2] = preferred compounds, 1 μM or less

Row | Structure (SMILES) | IC50 [1] [nM] | IC50 [2] [nM]
1 | C[C@@H]1CN(C(=O)c2ccc(Nc3nccc(-c4ccc(Cl)cc4)n3)cc2)C[C@H](C)N1 [Compound 17-190] | ≤ 500 | ≤ 1000
2 | O=C(c1ccc(Nc2nccc(-c3ccc(Cl)cc3)n2)cc1)N1CCN(CCO)CC1 [Compound 17-215] | ≤ 500 | ≤ 1000
3 | O=C(c1ccc(Nc2nccc(-c3ccc(Cl)cc3)n2)cc1)N1CCNCC1 [Compound 18, 4-{[4-(4-chlorophenyl)pyrimidin-2-yl]amino}benzoic acid piperazine amide hydrochloride] | ≤ 500 | ≤ 1000
4 | CC(=O)NC1CCN(C(=O)c2ccc(Nc3nccc(-c4ccc(Cl)cc4)n3)cc2)CC1 [Compound 20-1, N-{1-[(4-{[4-(4-Chlorophenyl)pyrimidin-2-yl]amino}phenyl)carbonyl]-4-piperidyl}acetamide] | ≤ 500 | ≤ 1000

Now from value to compound:

Row | IC50 [1] [nM] | IC50 [2] [nM] | Structure (SMILES)
5 | ≤ 500 | ≤ 1000 | Cc1noc(C)c1C(=O)NC1CCN(C(=O)c2ccc(Nc3nccc(-c4ccc(Cl)cc4)n3)cc2)CC1 [Compound 20-2]
6 | ≤ 500 | ≤ 1000 | O=C(NC1CCN(C(=O)c2ccc(Nc3nccc(-c4ccc(Cl)cc4)n3)cc2)CC1)c1cccs1 [Compound 20-3]
7 | ≤ 500 | ≤ 1000 | O=C(NC1CCN(C(=O)c2ccc(Nc3nccc(-c4ccc(Cl)cc4)n3)cc2)CC1)N1CCOCC1 [Compound 20-4]
8 | ≤ 500 | ≤ 1000 | CN(C)C(=O)NC1CCN(C(=O)c2ccc(Nc3nccc(-c4ccc(Cl)cc4)n3)cc2)CC1 [Compound 20-5]
9 | ≤ 500 | ≤ 1000 | COCC(=O)NC1CCN(C(=O)c2ccc(Nc3nccc(-c4ccc(Cl)cc4)n3)cc2)CC1 [Compound 20-6]
